The source of these data is ChEMBL document CHEMBL3044938, “Chromatographic separation and in vitro activity of sorgoleone congeners from the roots of sorghum bicolor” (J Agric Food Chem, 2003).

The target of the assay is Photosystem II protein D1 (Spinacia oleracea, UniProt P69560). Kind of assay: Inhibition of photosystem II mediated oxygen evolution in Spinacia oleracea (spinach) thylakoid measured for 25 sec. The following applies: read-out: I50.
For `CCCCCCCCCCCCCC1=C(O)C(=O)C=C(OC)C1=O` [Sorgoleone-364], the IC50 is 103 nM.
The result for `CCCCCC/C=C\CCCCCCCC1=C(O)C(=O)C=C(OC)C1=O` [Sorgoleone-362] reads 109 nM.
The result for `CCC/C=C\C/C=C\CCCCCCCC1=C(O)C(=O)C=C(OC)C1=O` [Sorgoleone-360] reads 104 nM.
For `C=CC/C=C\C/C=C\CCCCCCCC1=C(O)C(=O)C=C(OC)C1=O` [SORGOLEONE], the IC50 stood at 65 nM.
